The record followed here is US20250163043A1 (TRANSTHERA SCIENCES (NANJING), INC., priority 2021, published 2025).

Test [1] has as its target T1, CDK9/CycT1 (Homo sapiens, UniProt P50750). Briefly: Off-chip mobility shift assay (MSA) on CDK9/CycT1. Conditions: 4-point concentration (0.0016, 0.008, 0.04, 0.2 uM), ATP 10 μM, reaction time 5 hours, read-out: CDK9/CycT1/nM (inhibitory activity). The format is biochemical. Set-up: Full-length human CDK9 [1-372(end) amino acids of; host or cells: baculovirus expression system. The procedure:
Prepare 100× concentrated Test compound stock solutions with DMSO. Then, Dilute the solution 25 times with Assay Buffer (20 mM HEPES, 0.01% Triton X-100, 2 mM DTT, pH7.5) to prepare 4× test compound solutions.
Test compounds were evaluated at 4-point concentration (0.0016, 0.008, 0.04, 0.2 uM). • 1) Mix 5 μL of 4× test compound solution with 5 μL of 4× substrate/ATP/Metal solution and 10 μL of 2× kinase solution in 384-well polypropylene plate. Incubate for 5 hours at room temperature. • 2) Add 70 μL of Termination Buffer (QuickScout Screening Assist MSA; Carna Biosciences) to stop the reaction. • 3) Separate and detect unphosphorylated/phosphorylated substrate peptides in the reactant using LabChip system (Perkin Elmer). • 4) Evaluate kinase reaction from product ratio (P/(P+S)) calculated by peak height of unphosphorylated substrate(S) and peak height of phosphorylated substrate (P).

For test [2], the target named is T1, CDK9/CycT1. In words: ADP-Glo kinase assay on CDK enzymatic activity, CDK9/CycT1. Type of test: biochemical. Conditions: 10 concentrations from 10 μM, 4-fold, 60 min room temperature. The procedure, abridged:
(§1)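 Steps: compound (10 μM top, 4-fold series) plus kinase, 10 min RT; add substrate/ATP mix, 60 min RT; ADP-Glo reagent 40 min; detection reagent 40 min; read luminescence. Inhibition referenced to AZD4573 (1 μM) and DMSO vehicle; IC50 by nonlinear fit.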

The target in test [3] is CDK2/CycA2 (Homo sapiens, UniProt P24941). In words: ADP-Glo kinase assay on CDK enzymatic activity, CDK2/CycA2. The format is biochemical. The note with it: 10 concentrations from 10 μM, 4-fold, 60 min room temperature. The method, boiled down:
as §1

The target in test [4] is CDK3/CycE1 (Homo sapiens, UniProt Q00526). In words: ADP-Glo kinase assay on CDK enzymatic activity, CDK3/CycE1. Type of test: biochemical. The note with it: 10 concentrations from 10 μM, 4-fold, 60 min room temperature. The method, boiled down: as §1
Test [5] has as its target CDK5/p25NCK (Homo sapiens, UniProt Q00535). In words: ADP-Glo kinase assay on CDK enzymatic activity, CDK5/p25NCK. Type of test: biochemical. The note with it: 10 concentrations from 10 μM, 4-fold, 60 min room temperature. The method, boiled down: as §1
In test [6] the test system is MV-4-11 (human myelomonocytic leukemia cells). In words: CCK-8 cell proliferation assay, MV-4-11. Type of test: cell-based. The note with it: MV4-11, 24 h incubation, 11 concentrations from 5000 nM, 3-fold, read-out: MV-4-11 cell proliferation IC50 (class).
Test [7] deals with CDK1/CycE1 (Homo sapiens, UniProt P06493). Briefly: ADP-Glo kinase assay on CDK enzymatic activity, CDK1/CycE1. Type of test: biochemical. Conditions: ADP-Glo; 10 concentrations from 10 μM, 4-fold; 60 min room temperature; read-out: CDK1/CycE1/nM (IC50). The method, boiled down:
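Compounds in 10-point 4-fold dilutions from 10 μM final, preincubated 10 min with kinase, then substrate/ATP added; 60 min reaction at room temperature. ADP-Glo luminescence read.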

T1 sequence (P50750 whole entry): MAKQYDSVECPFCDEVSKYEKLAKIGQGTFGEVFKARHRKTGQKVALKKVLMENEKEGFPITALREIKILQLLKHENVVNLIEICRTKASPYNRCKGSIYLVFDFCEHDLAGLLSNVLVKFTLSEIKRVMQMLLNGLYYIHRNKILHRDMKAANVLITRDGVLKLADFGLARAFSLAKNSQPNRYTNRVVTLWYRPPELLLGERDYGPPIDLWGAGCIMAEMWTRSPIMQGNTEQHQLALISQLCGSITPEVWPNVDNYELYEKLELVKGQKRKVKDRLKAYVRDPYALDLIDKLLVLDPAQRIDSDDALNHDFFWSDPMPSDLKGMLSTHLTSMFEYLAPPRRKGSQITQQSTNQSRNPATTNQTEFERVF
T1 sequence (O60563 whole entry partner): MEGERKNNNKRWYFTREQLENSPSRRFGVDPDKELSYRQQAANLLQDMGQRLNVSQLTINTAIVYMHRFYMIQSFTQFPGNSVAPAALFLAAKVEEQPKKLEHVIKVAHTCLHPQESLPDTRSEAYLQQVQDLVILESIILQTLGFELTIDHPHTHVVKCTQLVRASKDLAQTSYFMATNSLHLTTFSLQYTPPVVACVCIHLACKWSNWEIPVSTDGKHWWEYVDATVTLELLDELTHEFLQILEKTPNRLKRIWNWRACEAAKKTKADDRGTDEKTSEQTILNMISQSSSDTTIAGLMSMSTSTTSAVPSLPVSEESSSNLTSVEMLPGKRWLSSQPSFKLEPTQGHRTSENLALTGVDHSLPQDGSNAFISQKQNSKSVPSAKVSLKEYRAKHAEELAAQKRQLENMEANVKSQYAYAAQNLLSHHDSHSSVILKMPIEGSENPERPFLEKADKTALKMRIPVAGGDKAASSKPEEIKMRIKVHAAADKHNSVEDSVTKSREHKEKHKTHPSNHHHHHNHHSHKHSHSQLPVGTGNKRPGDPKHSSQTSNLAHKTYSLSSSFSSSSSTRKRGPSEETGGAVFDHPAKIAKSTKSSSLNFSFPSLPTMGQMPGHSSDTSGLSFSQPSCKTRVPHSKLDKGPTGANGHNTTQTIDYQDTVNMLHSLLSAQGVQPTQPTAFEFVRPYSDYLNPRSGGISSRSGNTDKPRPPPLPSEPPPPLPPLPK
Chain of CDK3/CycE1 (Q00526 whole entry, species assumed): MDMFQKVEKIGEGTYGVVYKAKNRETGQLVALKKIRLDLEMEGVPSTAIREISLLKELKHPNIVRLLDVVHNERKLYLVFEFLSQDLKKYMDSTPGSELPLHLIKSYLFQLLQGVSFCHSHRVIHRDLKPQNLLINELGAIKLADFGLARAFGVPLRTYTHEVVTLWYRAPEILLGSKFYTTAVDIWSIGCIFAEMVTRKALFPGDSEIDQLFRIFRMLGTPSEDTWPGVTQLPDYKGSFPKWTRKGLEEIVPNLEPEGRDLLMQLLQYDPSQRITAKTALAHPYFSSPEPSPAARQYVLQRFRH
Chain of CDK3/CycE1 (P24864 whole entry partner, species assumed): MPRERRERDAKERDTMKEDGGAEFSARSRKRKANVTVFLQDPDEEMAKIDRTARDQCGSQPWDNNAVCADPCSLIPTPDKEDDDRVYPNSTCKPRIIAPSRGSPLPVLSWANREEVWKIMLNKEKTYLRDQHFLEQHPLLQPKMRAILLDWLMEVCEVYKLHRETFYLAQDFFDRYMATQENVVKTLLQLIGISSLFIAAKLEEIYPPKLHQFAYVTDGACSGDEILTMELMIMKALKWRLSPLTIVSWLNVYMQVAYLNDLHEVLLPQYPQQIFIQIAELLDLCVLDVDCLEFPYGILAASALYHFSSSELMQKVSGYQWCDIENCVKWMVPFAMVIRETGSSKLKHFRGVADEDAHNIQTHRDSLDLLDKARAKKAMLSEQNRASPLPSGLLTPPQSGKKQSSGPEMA
Chain of CDK5/p25NCK (Q00535 whole entry, species assumed): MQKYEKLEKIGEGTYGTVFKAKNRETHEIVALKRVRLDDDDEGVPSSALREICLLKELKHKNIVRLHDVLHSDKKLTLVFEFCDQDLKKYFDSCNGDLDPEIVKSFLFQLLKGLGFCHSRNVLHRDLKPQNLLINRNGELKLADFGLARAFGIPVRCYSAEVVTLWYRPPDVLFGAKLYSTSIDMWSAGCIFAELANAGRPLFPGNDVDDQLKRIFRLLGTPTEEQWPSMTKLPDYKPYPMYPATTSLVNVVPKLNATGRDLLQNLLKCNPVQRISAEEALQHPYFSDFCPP
Chain of CDK5/p25NCK (Q15078 99-307 partner limits assumed, species assumed): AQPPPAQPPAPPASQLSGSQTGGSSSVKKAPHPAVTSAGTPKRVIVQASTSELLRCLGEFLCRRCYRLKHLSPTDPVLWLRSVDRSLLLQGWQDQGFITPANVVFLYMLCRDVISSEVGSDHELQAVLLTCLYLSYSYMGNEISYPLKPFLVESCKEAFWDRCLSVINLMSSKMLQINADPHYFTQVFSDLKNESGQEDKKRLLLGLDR
Chain of CDK1/CycE1 (P06493 whole entry, species assumed): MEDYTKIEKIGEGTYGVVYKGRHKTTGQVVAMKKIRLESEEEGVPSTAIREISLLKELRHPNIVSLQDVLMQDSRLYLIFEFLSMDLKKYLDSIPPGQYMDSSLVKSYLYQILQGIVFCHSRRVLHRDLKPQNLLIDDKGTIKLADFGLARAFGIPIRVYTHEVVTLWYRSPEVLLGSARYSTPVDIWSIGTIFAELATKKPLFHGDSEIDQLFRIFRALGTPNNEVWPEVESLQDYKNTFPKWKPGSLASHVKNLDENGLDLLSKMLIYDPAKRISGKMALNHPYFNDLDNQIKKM
Chain of CDK1/CycE1 (P24864 whole entry partner, species assumed): as the sequence (P24864 whole entry partner, species assumed) above

Consider `CC(C)Nc1nc([C@@H](C)O)cc2cnc(NC3CC[C@H](C(=O)O)C3)nc12` (stereo in doubt) [Compound 77, (1S,3R)-3-((6-((R)-1-hydroxyethyl)-8-(isopropylamino)pyrido[3,4-d]pyrimidin-2-yl)amino)cyclopentane-1-carboxylic acid], for which the IC50 in test [1] was 85 nM.
Same read-out and setting: the value for `CC(=O)N[C@@H]1CCC[C@H](C(=O)Nc2cc3c(NC(C)C)nc(C(F)F)cc3cn2)C1` [Compound 1, (1S,3R)-3-acetamido-N-(7-(difluoromethyl)-5-(isopropylamino)-2,6-naphthyridin-3-yl)cyclohexane-1-carboxamide] was 7 nM.
On to `CC(=O)N[C@@H]1CCC[C@H](C(=O)Nc2cc3c(N4CCC(F)(F)CC4)nc(C#N)cc3cn2)C1` [Compound 23, (1S,3R)-3-acetamido-N-(7-cyano-5-(4,4-difluoropiperidin-1-yl)-2,6-naphthyridin-3-yl)cyclohexane-1-carboxamide], for which the IC50 in test [2] was 38 nM; in test [3], 3870 nM; in test [4], 5650 nM; in test [5], over 10000 nM; in test [6], over 1000 nM.
For `CC(=O)N[C@H]1CCC[C@H](C(=O)Nc2cc3c(NC(C)C)nc(C#N)cc3cn2)C1` [Compound 25, (1S,3S)-3-acetamido-N-(7-cyano-5-(isopropylamino)-2,6-naphthyridin-3-yl)cyclohexane-1-carboxamide], in that order: 12 nM, 521 nM, 602 nM, 1210 nM and 400 to 1000 nM.
The like results for `CC(C)Nc1nc(C#N)cc2cnc(NC(=O)[C@H]3CCC[C@H](N)C3)cc12` [Compound 27, (1S,3S)-3-amino-N-(7-cyano-5-(isopropylamino)-2,6-naphthyridin-3-yl)cyclohexane-1-carboxamide] were, in that order, 51 nM, 2520 nM, 1630 nM, 3960 nM and 400 to 1000 nM.
The like results for `CC(C)Nc1nc(C#N)cc2cnc(N[C@H]3CCNC3)cc12` [Compound 31, (S)-1-(isopropylamino)-7-(pyrrolidin-3-ylamino)-2,6-naphthyridine-3-carbonitrile] were, in that order, 4 nM, 594 nM, 1300 nM, 1480 nM and 400 to 1000 nM.
With `CN[C@@H]1CC[C@H](Nc2cc3c(NC(C)C)nc(C#N)cc3cn2)C1` [Compound 32, 1-(isopropylamino)-7-(((1S,3R)-3-(methylamino)cyclopentyl)amino)-2,6-naphthyridine-3-carbonitrile], the IC50 was 7 nM in test [2]; 1080 nM in test [3]; 2050 nM in test [4]; 1580 nM in test [5]; 400 to 1000 nM in test [6].
The like results for `CC(C)Nc1nc(C#N)cc2cnc(N[C@H]3CC[C@@H](O)C3)cc12` [Compound 36, 7-(((1S,3R)-3-hydroxycyclopentyl)amino)-1-(isopropylamino)-2,6-naphthyridine-3-carbonitrile] were, in that order, 1 nM, 4 nM, 23 nM, 7 nM and 400 to 1000 nM.
For `CC(C)Nc1nc(C#N)cc2cnc(N[C@@H]3CN[C@H](CO)C3)cc12` [Compound 37, 7-(((3S,5S)-5-(hydroxymethyl)pyrrolidin-3-yl)amino)-1-(isopropylamino)-2,6-naphthyridine-3-carbonitrile], in that order: 5 nM, 520 nM, 1130 nM, 941 nM and over 1000 nM.
The like results for `CC(C)Nc1nc(C#N)cc2cnc(N[C@@H]3CNCC[C@@H]3F)cc12` [Compound 42, 7-(((3R,4S)-4-fluoropiperidin-3-yl)amino)-1-(isopropylamino)-2,6-naphthyridine-3-carbonitrile] were, in that order, 18 nM, 2020 nM, 1300 nM, 3040 nM and over 1000 nM.
For the compound `CC(=O)N[C@H]1CC[C@H](Nc2ncc3cc(C#N)nc(NC(C)C)c3n2)C1` [Compound 46, N-((1S,3S)-3-((6-cyano-8-(isopropylamino)pyrido[3,4-d]pyrimidin-2-yl)amino)cyclopentyl)acetamide], the IC50 is 3 nM in test [2]; 33 nM in test [3]; 271 nM in test [4]; 72 nM in test [5]; 400 to 1000 nM in test [6].
Consider `CC(=O)N[C@@H]1CC[C@H](Nc2cc3c(NC(C)C)nc(C#N)cc3cn2)C1` [Compound 47, N-((1R,3S)-3-((7-cyano-5-(isopropylamino)-2,6-naphthyridin-3-yl)amino)cyclopentyl)acetamide], for which the IC50 in test [2] was 17 nM; in test [3] it was 494 nM; in test [4] it was 987 nM; in test [5], 1050 nM; in test [6], 400 to 1000 nM.
For `CC(C)Nc1nc(C(F)F)cc2cnc(N[C@H]3CC[C@@H](N)C3)cc12` [Compound 53, N7-((1S,3R)-3-aminocyclopentyl)-3-(difluoromethyl)-N^1-isopropyl-2,6-naphthyridine-1,7-diamine], the IC50 in test [2] was 2 nM; in test [7], 709 nM; in test [3] it was 161 nM; in test [4] it was 315 nM; in test [5], 549 nM; in test [6] it was 400 to 1000 nM.
Regarding `COCCN[C@H]1CC[C@H](Nc2cc3c(NC(C)C)nc(C#N)cc3cn2)C1` [Compound 56, 1-(isopropylamino)-7-(((1S,3S)-3-((2-methoxyethyl)amino)cyclopentyl)amino)-2,6-naphthyridine-3-carbonitrile], the IC50 in test [2] was 3 nM; in test [3] it was 656 nM; in test [4], 1110 nM; in test [5], 927 nM; in test [6], 400 to 1000 nM.
On to `CC(C)Nc1nc(C#N)cc2cnc(N[C@H]3CCCN(C)C3)cc12` [Compound 57, (S)-1-(isopropylamino)-7-((1-methylpiperidin-3-yl)amino)-2,6-naphthyridine-3-carbonitrile], for which the IC50 is 30 nM in test [2]; 427 nM in test [3]; 2520 nM in test [4]; 1760 nM in test [5]; over 1000 nM in test [6].
For `CC(C)Nc1nc([C@@H](C)O)cc2cnc(N[C@H]3CC[C@H](NC(=O)CN(C)C)CC3)nc12` [Compound 63, 2-(dimethylamino)-N-((1R,4r)-4-((6-((R)-1-hydroxyethyl)-8-(isopropylamino)pyrido[3,4-d]pyrimidin-2-yl)amino)cyclohexyl)acetamide], in test [1], the IC50 came out at 14 nM.
In the case of `CC(C)Nc1nc(C#N)cc2cnc(N[C@H]3CC[C@H](C)NC3)nc12` [Compound 107, 8-(isopropylamino)-2-(((3S,6S)-6-methylpiperidin-3-yl)amino)pyrido[3,4-d]pyrimidine-6-carbonitrile], the IC50 in test [2] is 18 nM; in test [7] it was 947 nM; in test [3] it was 443 nM; in test [4], 831 nM; in test [5], 435 nM; in test [6], 400 to 1000 nM.
Turning to `CC(C)Nc1nc(C#N)cc2cnc(NC3CCNCC3)nc12` [Compound 114, 8-(isopropylamino)-2-(piperidin-4-ylamino)pyrido[3,4-d]pyrimidine-6-carbonitrile], the IC50 in test [2] is 9 nM; in test [7], 216 nM; in test [3] it was 504 nM; in test [4], 413 nM; in test [5] it was 1170 nM; in test [6] it was 400 to 1000 nM.
`C[C@@H](Nc1nc(C#N)cc2cnc(N[C@H]3CCCNC3)cc12)c1ccccc1` [Compound 147, 1-(((R)-1-phenylethyl)amino)-7-(((S)-piperidin-3-yl)amino)-2,6-naphthyridine-3-carbonitrile]: the IC50 in test [2] is 3 nM; in test [7], 158 nM; in test [3], 531 nM; in test [4] it was 215 nM; in test [5], 2230 nM; in test [6], 400 to 1000 nM.
